According to patent publication US20250230193A1, “CYCLIC COMPOUND HAVING SELECTIVE KRAS INHIBITORY EFFECT ON HRAS AND NRAS” (CHUGAI SEIYAKU KABUSHIKI KAISHA, priority 2022, published 2025):
Where a SMILES comes first, the peptide text is derived from it. Bridges are numbered along the chain shown (N, C = ends). [ ]: non-standard residue; d: D form. The star is where a group is joined. hPhe(3-Cl-4-CF3) = N[C@@H](CCc1ccc(C(F)(F)F)c(Cl)c1)C(=O)O; NPrPhe(4-CF3) = CCCN[C@@H](Cc1ccc(C(F)(F)F)cc1)C(=O)O; NMeGly(cPent) = CN[C@H](C(=O)O)C1CCCC1; Pro(4,4-F2) = O=C(O)[C@@H]1CC(F)(F)CN1; Hyp = O=C(O)[C@@H]1C[C@@H](O)CN1; NMeD = CN[C@@H](CC(=O)O)C(=O)O; NMeL = CN[C@@H](CC(C)C)C(=O)O; Morpholide = C1CN(*)CCO1; NMeA = CN[C@@H](C)C(=O)O; Ac5c = NC1(C(=O)O)CCCC1; Aze = O=C(O)[C@@H]1CCN1; Ac4c = NC1(C(=O)O)CCC1; NEtG = CCNCC(=O)O; Sar = CNCC(=O)O

Key:
[1] = target: GDP-bound HRAS wild-type protein (Homo sapiens, UniProt P01112); assay: Binding to HRAS by surface plasmon resonance (SPR), Single Cycle Kinetics; details: KD ratio HRAS/KRAS, SPR
[2] = target: GDP-bound NRAS wild-type protein (Homo sapiens, UniProt P01111); assay: Binding to NRAS by surface plasmon resonance (SPR), Single Cycle Kinetics; details: KD ratio NRAS/KRAS, SPR
Sequence of GDP-bound NRAS wild-type protein (P01111 whole entry): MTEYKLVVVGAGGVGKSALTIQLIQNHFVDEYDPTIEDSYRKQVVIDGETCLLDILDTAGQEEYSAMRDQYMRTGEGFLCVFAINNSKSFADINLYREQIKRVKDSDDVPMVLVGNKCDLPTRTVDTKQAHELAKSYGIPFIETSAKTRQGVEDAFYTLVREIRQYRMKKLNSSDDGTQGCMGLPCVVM

Sequence of GDP-bound HRAS wild-type protein (P01112 whole entry): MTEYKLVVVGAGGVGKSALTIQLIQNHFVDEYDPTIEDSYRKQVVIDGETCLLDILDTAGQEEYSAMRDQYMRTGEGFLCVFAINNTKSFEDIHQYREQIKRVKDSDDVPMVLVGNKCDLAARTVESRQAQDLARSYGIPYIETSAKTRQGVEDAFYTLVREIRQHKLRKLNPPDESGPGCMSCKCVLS

SMILES	HRAS/KRAS (ratio of KD for GDP-bound HRAS wild-type to KD for KRAS) [1]	NRAS/KRAS (ratio of KD for GDP-bound NRAS wild-type to KD for KRAS) [2]
CCCN1C(=O)CN(C)C(=O)CNC(=O)[C@H]([C@@H](C)CC)NC(=O)[C@H](CC(C)C)N(C)C(=O)C[C@@H](C(=O)N2CCOCC2)N(C)C(=O)[C@H](C2CCCC2)N(C)C(=O)C2(CCC2)NC(=O)[C@@H]2C[C@@H](OCC)CN2C(=O)[C@H](CCc2ccc(C(F)(F)F)c(Cl)c2)NC(=O)CN(C)C(=O)[C@@H]1Cc1ccc(C(F)(F)F)cc1 [PP0397] ([NMeL]IG[Sar][NPrPhe(4-CF3)][Sar][hPhe(3-Cl-4-CF3)][Hyp](Et)[Ac4c][NMeGly(cPent)][NMeD]-Morpholide; lactam N-11)	C (A compound having a KD ratio of 0.1 or more and less than 3 is denoted as C)	C (A compound having a KD ratio of 0.1 or more and less than 3 is denoted as C)
CCCN1C(=O)CN(C)C(=O)CN(CC)C(=O)[C@H]([C@@H](C)CC)NC(=O)[C@H](CC(C)C)N(C)C(=O)C[C@@H](C(=O)N2CCOCC2)N(C)C(=O)[C@H](C2CCCC2)N(C)C(=O)C2(CCC2)NC(=O)[C@@H]2CCCN2C(=O)[C@H](CCc2ccc(C(F)(F)F)c(Cl)c2)NC(=O)CN(C)C(=O)[C@@H]1Cc1ccc(C(F)(F)F)cc1 [PP0398] ([NMeL]I[NEtG][Sar][NPrPhe(4-CF3)][Sar][hPhe(3-Cl-4-CF3)]P[Ac4c][NMeGly(cPent)][NMeD]-Morpholide; lactam N-11)	C (A compound having a KD ratio of 0.1 or more and less than 3 is denoted as C)	B (a compound having 3 or more and less than 10 is denoted as B)
CCCN1C(=O)CN(C)C(=O)CN(CC)C(=O)[C@H]([C@@H](C)CC)NC(=O)[C@H](CC(C)C)N(C)C(=O)C[C@@H](C(=O)N2CCOCC2)N(C)C(=O)[C@H](C2CCCC2)N(C)C(=O)C2(CCCC2)NC(=O)[C@@H]2CC(F)(F)CN2C(=O)[C@H](CCc2ccc(C(F)(F)F)c(Cl)c2)NC(=O)CN(C)C(=O)[C@@H]1Cc1ccc(C(F)(F)F)cc1 [PP0399] ([NMeL]I[NEtG][Sar][NPrPhe(4-CF3)][Sar][hPhe(3-Cl-4-CF3)][Pro(4,4-F2)][Ac5c][NMeGly(cPent)][NMeD]-Morpholide; lactam N-11)	C (A compound having a KD ratio of 0.1 or more and less than 3 is denoted as C)	B (a compound having 3 or more and less than 10 is denoted as B)
CCCN1C(=O)CN(C)C(=O)CN(CC)C(=O)[C@H]([C@@H](C)CC)NC(=O)[C@H](CC(C)C)N(C)C(=O)C[C@@H](C(=O)N2CCOCC2)N(C)C(=O)[C@H](C2CCCC2)N(C)C(=O)C2(CCC2)NC(=O)[C@@H]2CC(F)(F)CN2C(=O)[C@H](CCc2ccc(C(F)(F)F)c(Cl)c2)NC(=O)CN(C)C(=O)[C@@H]1Cc1ccc(C(F)(F)F)cc1 [PP0400] ([NMeL]I[NEtG][Sar][NPrPhe(4-CF3)][Sar][hPhe(3-Cl-4-CF3)][Pro(4,4-F2)][Ac4c][NMeGly(cPent)][NMeD]-Morpholide; lactam N-11)	B (a compound having 3 or more and less than 10 is denoted as B)	B (a compound having 3 or more and less than 10 is denoted as B)
CCCN1C(=O)CN(C)C(=O)CN(CC)C(=O)[C@H]([C@@H](C)CC)NC(=O)[C@H](CC(C)C)N(C)C(=O)C[C@@H](C(=O)N2CCOCC2)N(C)C(=O)[C@H](C2CCCC2)N(C)C(=O)C2(CCC2)NC(=O)[C@@H]2C[C@@H](OCC)CN2C(=O)[C@H](CCc2ccc(C(F)(F)F)c(Cl)c2)NC(=O)CN(C)C(=O)[C@@H]1Cc1ccc(C(F)(F)F)cc1 [PP0401] ([NMeL]I[NEtG][Sar][NPrPhe(4-CF3)][Sar][hPhe(3-Cl-4-CF3)][Hyp](Et)[Ac4c][NMeGly(cPent)][NMeD]-Morpholide; lactam N-11)	B (a compound having 3 or more and less than 10 is denoted as B)	B (a compound having 3 or more and less than 10 is denoted as B)
CCCN1C(=O)CN(C)C(=O)[C@@H]2CCN2C(=O)[C@H]([C@@H](C)CC)NC(=O)[C@H](CC(C)C)N(C)C(=O)C[C@@H](C(=O)N2CCOCC2)N(C)C(=O)[C@H](C2CCCC2)N(C)C(=O)C2(CCC2)NC(=O)[C@@H]2CCCN2C(=O)[C@H](CCc2ccc(C(F)(F)F)c(Cl)c2)NC(=O)CN(C)C(=O)[C@@H]1Cc1ccc(C(F)(F)F)cc1 [PP0402] ([NMeL]I[Aze][Sar][NPrPhe(4-CF3)][Sar][hPhe(3-Cl-4-CF3)]P[Ac4c][NMeGly(cPent)][NMeD]-Morpholide; lactam N-11)	C (A compound having a KD ratio of 0.1 or more and less than 3 is denoted as C)	B (a compound having 3 or more and less than 10 is denoted as B)
CCCN1C(=O)CN(C)C(=O)[C@@H]2CCN2C(=O)[C@H]([C@@H](C)CC)NC(=O)[C@H](CC(C)C)N(C)C(=O)C[C@@H](C(=O)N2CCOCC2)N(C)C(=O)[C@H](C2CCCC2)N(C)C(=O)C2(CCCC2)NC(=O)[C@@H]2CC(F)(F)CN2C(=O)[C@H](CCc2ccc(C(F)(F)F)c(Cl)c2)NC(=O)CN(C)C(=O)[C@@H]1Cc1ccc(C(F)(F)F)cc1 [PP0403] ([NMeL]I[Aze][Sar][NPrPhe(4-CF3)][Sar][hPhe(3-Cl-4-CF3)][Pro(4,4-F2)][Ac5c][NMeGly(cPent)][NMeD]-Morpholide; lactam N-11)	B (a compound having 3 or more and less than 10 is denoted as B)	B (a compound having 3 or more and less than 10 is denoted as B)
CCCN1C(=O)CN(C)C(=O)[C@@H]2CCN2C(=O)[C@H]([C@@H](C)CC)NC(=O)[C@H](CC(C)C)N(C)C(=O)C[C@@H](C(=O)N2CCOCC2)N(C)C(=O)[C@H](C2CCCC2)N(C)C(=O)C2(CCC2)NC(=O)[C@@H]2CC(F)(F)CN2C(=O)[C@H](CCc2ccc(C(F)(F)F)c(Cl)c2)NC(=O)CN(C)C(=O)[C@@H]1Cc1ccc(C(F)(F)F)cc1 [PP0404] ([NMeL]I[Aze][Sar][NPrPhe(4-CF3)][Sar][hPhe(3-Cl-4-CF3)][Pro(4,4-F2)][Ac4c][NMeGly(cPent)][NMeD]-Morpholide; lactam N-11)	C (A compound having a KD ratio of 0.1 or more and less than 3 is denoted as C)	B (a compound having 3 or more and less than 10 is denoted as B)
CCCN1C(=O)CN(C)C(=O)[C@@H]2CCN2C(=O)[C@H]([C@@H](C)CC)NC(=O)[C@H](CC(C)C)N(C)C(=O)C[C@@H](C(=O)N2CCOCC2)N(C)C(=O)[C@H](C2CCCC2)N(C)C(=O)C2(CCC2)NC(=O)[C@@H]2C[C@@H](OCC)CN2C(=O)[C@H](CCc2ccc(C(F)(F)F)c(Cl)c2)NC(=O)CN(C)C(=O)[C@@H]1Cc1ccc(C(F)(F)F)cc1 [PP0405] ([NMeL]I[Aze][Sar][NPrPhe(4-CF3)][Sar][hPhe(3-Cl-4-CF3)][Hyp](Et)[Ac4c][NMeGly(cPent)][NMeD]-Morpholide; lactam N-11)	C (A compound having a KD ratio of 0.1 or more and less than 3 is denoted as C)	B (a compound having 3 or more and less than 10 is denoted as B)
CCCN1C(=O)[C@@H]2CCN2C(=O)[C@H](C)N(C)C(=O)[C@H]([C@@H](C)CC)NC(=O)[C@H](CC(C)C)N(C)C(=O)C[C@@H](C(=O)N2CCOCC2)N(C)C(=O)[C@H](C2CCCC2)N(C)C(=O)C2(CCC2)NC(=O)[C@@H]2C[C@@H](OCC)CN2C(=O)[C@H](CCc2ccc(C(F)(F)F)c(Cl)c2)NC(=O)CN(C)C(=O)[C@@H]1Cc1ccc(C(F)(F)F)cc1 [PP0406] ([NMeL]I[NMeA][Aze][NPrPhe(4-CF3)][Sar][hPhe(3-Cl-4-CF3)][Hyp](Et)[Ac4c][NMeGly(cPent)][NMeD]-Morpholide; lactam N-11)	B (a compound having 3 or more and less than 10 is denoted as B)	C (A compound having a KD ratio of 0.1 or more and less than 3 is denoted as C)
CCCN1C(=O)[C@@H]2CCN2C(=O)CN(C)C(=O)[C@H]([C@@H](C)CC)NC(=O)[C@H](CC(C)C)N(C)C(=O)C[C@@H](C(=O)N2CCOCC2)N(C)C(=O)[C@H](C2CCCC2)N(C)C(=O)C2(CCC2)NC(=O)[C@@H]2CCCN2C(=O)[C@H](CCc2ccc(C(F)(F)F)c(Cl)c2)NC(=O)CN(C)C(=O)[C@@H]1Cc1ccc(C(F)(F)F)cc1 [PP0407] ([NMeL]I[Sar][Aze][NPrPhe(4-CF3)][Sar][hPhe(3-Cl-4-CF3)]P[Ac4c][NMeGly(cPent)][NMeD]-Morpholide; lactam N-11)	B (a compound having 3 or more and less than 10 is denoted as B)	C (A compound having a KD ratio of 0.1 or more and less than 3 is denoted as C)
CCCN1C(=O)[C@@H]2CCN2C(=O)CN(C)C(=O)[C@H]([C@@H](C)CC)NC(=O)[C@H](CC(C)C)N(C)C(=O)C[C@@H](C(=O)N2CCOCC2)N(C)C(=O)[C@H](C2CCCC2)N(C)C(=O)C2(CCCC2)NC(=O)[C@@H]2CC(F)(F)CN2C(=O)[C@H](CCc2ccc(C(F)(F)F)c(Cl)c2)NC(=O)CN(C)C(=O)[C@@H]1Cc1ccc(C(F)(F)F)cc1 [PP0408] ([NMeL]I[Sar][Aze][NPrPhe(4-CF3)][Sar][hPhe(3-Cl-4-CF3)][Pro(4,4-F2)][Ac5c][NMeGly(cPent)][NMeD]-Morpholide; lactam N-11)	B (a compound having 3 or more and less than 10 is denoted as B)	C (A compound having a KD ratio of 0.1 or more and less than 3 is denoted as C)
